Our source for the absorption maximum values is the Deep4Chem optical property database.

Where “and” joins values, the source holds several entries; their conditions need not be identical. Identical values can stand only once.

The nature of this data set: solvent given as SMILES.

Regarding `CCOC(=O)/C(C#N)=C\c1cn(-c2ccccc2)nc1-c1ccccc1`, the absorption maximum by setting is: (in C1CCOC1) 347 nm; (in C1COCCO1) 348 nm; (in CCO) 347 nm; (in CCOC(C)=O) 346 nm; (in CN(C)C=O) 347 nm; (in CO) 344 nm. Moreover, the absorption maximum reads like this: (in CS(C)=O) 349 nm; (in Cc1ccccc1) 353 nm; (in ClC(Cl)Cl) 351 nm; (in ClCCl) 348 nm.
The compound `CCCCN(CCCC)c1ccc2c(c1)C#CC#Cc1cc(N(CCCC)CCCC)ccc1C#Cc1cc(c3cc1C#Cc1ccc(C(F)(F)F)cc1C#CC#Cc1cc(C(F)(F)F)ccc1C#C3)C#C2` showed an absorption maximum (in ClCCl) of 466 nm.
`c1ccc2c(-c3cc(-c4nccs4)nc(-c4nccs4)c3)cccc2c1`: the absorption maximum was 324 nm (in CC#N), 325 nm (in CCCCCC), 325 nm (in CO) and 330 nm (in ClC(Cl)Cl).
Regarding `O=[N+]([O-])c1ccc(S(=O)(=O)Nc2ccc(C#Cc3ccc4ccc5ccc(C#Cc6ccc(NS(=O)(=O)c7ccc([N+](=O)[O-])cc7[N+](=O)[O-])cc6)c6ccc3c4c56)cc2)c([N+](=O)[O-])c1`, for the setting “in CO”, the absorption maximum was determined as 402 nm.
As for `O=C1c2ccccc2-c2c(-c3cc(Br)ccc3O)[nH]c(=O)n21`, the absorption maximum (in CC#N) was found to be 390 nm, the absorption maximum (in CO) worked out at 400 nm and the absorption maximum (in ClCCl) was found to be 396 nm.
The compound `F[B-]1(F)n2c(c(-c3ccccc3)c(-c3cccs3)c2-c2ccccc2)N=C2C(c3ccccc3)=C(c3cccs3)C(c3ccccc3)=[N+]21` displayed an absorption maximum (in ClCCl) of 650 nm.
With `N#Cc1ccc(/C=C/c2ncc(-c3ccccc3)o2)cc1`, the absorption maximum (in ClCCl) is given as 360 nm.
Regarding `Clc1cnc2nn3ccccc3c2c1`, the absorption maximum (in C1CCOC1) turned out to be 373 nm.
As to `CN(C)c1ccc(-n2c(-c3ccncc3)nc3ccccc32)cc1`, under “in CC#N”, the absorption maximum stood at 299 nm.
Regarding `CC1(C)C(/C=C/C=C/c2cc3ccc(O)cc3oc2=O)=[N+](CCCS(=O)(=O)[O-])c2ccc(S(=O)(=O)O)cc21`, the absorption maximum reads like this: (in CCO) 508 nm; (in CS(C)=O) 494 nm; (in O) 592 nm.
As for `CCOC(=O)c1ccc(O)c(-c2[nH]c(=O)n3c2-c2ccccc2C3=O)c1`, the absorption maximum reads like this: (in CC#N) 391 nm; (in CO) 395 nm; (in ClCCl) 399 nm.
For the compound `C1=Cc2nc1c(-c1ccccc1)c1ccc([nH]1)c(-c1ccccc1)c1cc(c(-c3ccccc3)c3ccc([nH]3)c2-c2ccccc2)N=C1`, the absorption maximum (in ClCCl) is listed as 726 nm.
In the case of `CCOC(=O)CCCCCn1c2ccc(Cl)cc2c(=O)c2cc3c(cc21)c(=O)c1cc(Cl)ccc1n3CCCCCC(=O)OCC`, the absorption maximum (in CO) is recorded as 534 nm.
On to `O=C1CC(=O)Nc2cc(Br)ccc2N1`, for which the absorption maximum (in CS(C)=O) was 299 nm.
For `CCCCCCCCCCCCOc1cc(/C=C/c2ccc3c(c2)C(CC)(CC)c2cc(N4c5ccccc5Sc5ccccc54)ccc2-3)c(OCCCCCCCCCCCC)cc1/C=C/c1ccc2c(c1)C(CC)(CC)c1cc(N3c4ccccc4Sc4ccccc43)ccc1-2`, the absorption maximum turned out to be 442.41 nm (in C1CCOC1); 436.72 nm (in CC#N); 436.38 nm (in CCCCCC); 442.93 nm (in Cc1ccccc1); 420 nm (in ClCCl).
As to `COc1ccc2n1[B-](F)(F)[N+]1=C(c3ccccc3)C=CC1=C2c1ccc(C)cc1`, the absorption maximum was found to be 532 nm (in C1CCCCC1); 528 nm (in C1CCOC1); 529 nm (in C1COCCO1); 526 nm (in CCOC(C)=O); 523 nm (in CO); 534 nm (in Cc1ccccc1). Where the note is “in ClC(Cl)Cl”, this compound yielded an absorption maximum of 530 nm.
Regarding `OCCSc1cccc2[n+]1[B-](F)(F)n1c(c3cccc4cccc1c43)=N2`, the absorption maximum reads like this: (in C1CCOC1) 485 nm; (in CC#N) 480 nm; (in CCCCCC) 484 nm; (in Cc1ccccc1) 487 nm; (in ClCCl) 482 nm and 453 nm.
With `CC(C)c1cc(C(C)C)c(B2c3ccccc3Oc3cc(-n4c5ccccc5c5c6c(c7ccccc7n6-c6ccccc6)c6c(c7ccccc7n6-c6ccccc6)c54)ccc32)c(C(C)C)c1`, the absorption maximum (in Cc1ccccc1) was determined as 458 nm.
`CC1(C)c2cc(/C=C/c3nc(/C=C/c4ccc5c(c4)C(C)(C)c4cc(N(c6ccccc6)c6ccc7ccccc7c6)ccc4-5)nc(/C=C/c4ccc5c(c4)C(C)(C)c4cc(N(c6ccccc6)c6ccc7ccccc7c6)ccc4-5)n3)ccc2-c2ccc(N(c3ccccc3)c3ccc4ccccc4c3)cc21` gave an absorption maximum (in C1CCOC1) of 403 nm.
As to `C1=Cc2ccc(N(c3ccccc3)c3ccccc3)cc2C2(c3cc(N(c4ccccc4)c4ccccc4)ccc31)c1ccccc1-c1ccccc12`, the absorption maximum (in ClCCl) stood at 406 nm.
The compound `C[Si]1(C)c2ccccc2-c2ccccc21` returned an absorption maximum (in ClCCl) of 336 nm.
Regarding `Cc1nc2c(cc3c4c(cccc42)C(=O)OC3=O)o1`, the absorption maximum (in CCO) is 360 nm.
For the compound `CN(C)c1ccc(C2=CC3=C(c4ccc(C=O)cc4)[C@H]4c5ccccc5[C@]3(S2)c2ccccc24)cc1`, the absorption maximum (in ClCCl) is given as 449 nm.
`Nc1ccc2c(-c3ccc(C(=O)CN4C(=O)CCC4=O)cc3C(=O)[O-])c3ccc(=[NH2+])c(S(=O)(=O)[O-])c-3oc2c1S(=O)(=O)[O-]` registered an absorption maximum (in O) of 494 nm.
As for `c1ccc2cc(-c3cc(-c4nccs4)nc(-c4nccs4)c3)ccc2c1`, the absorption maximum is given as 323 nm (in CC#N), 333 nm (in CCCCCC), 333 nm (in CO) and 329 nm (in ClC(Cl)Cl).
In turn, `O=P1(c2ccccc2)c2cccc3ccc4ccc1n4c23` (stereo not drawn) showed an absorption maximum (in ClCCl) of 412 nm.
Where the note is “in CS(C)=O”, `CCOC(=O)C1=C(N)n2c(=O)c3ccccc3c(=O)n2C1c1ccc([N+](=O)[O-])cc1` (stereo not drawn) had an absorption maximum of 358 nm.
As to `c1ccc(N(c2ccccc2)c2ccc(-c3ccc(-c4nc(-c5ccccn5)n(-c5ccccc5)n4)cc3)cc2)cc1`, the absorption maximum (in ClCCl) amounted to 349 nm.
As to `COc1ccc(C(=Cc2ccc(/C=C(\C#N)c3ccccc3)cc2)c2ccc(OC)cc2)cc1`, under “in C1CCOC1”, the absorption maximum is 388 nm.
On to `C#CCNC1=C2C=C(c3cc4n(c3)[B-](F)(F)[N+]3=CC=CC3=C4c3c(C)cc(C)cc3C)C(C)=[N+]2[B-](F)(F)n2c(C)ccc21`, for which the absorption maximum reads like this: (in C1CCCCC1) 568 nm; (in CCOC(C)=O) 568 nm.
On to `CCN(CC)c1ccc2c(-c3ccccc3C(=O)O)c3c([o+]c2c1)/C(=C/c1ccc(N(C)C)s1)CCC3`, for which the absorption maximum (in ClCCl) is 733 nm.
On to `Nc1ccccc1/C=C/C(F)(F)F`, for which the absorption maximum (in C1CCOC1) was found to be 347 nm.
On to `CN(C)c1ccc(C#Cc2ccc(-c3cc(N(C)C)c4ccccc4c3)cc2)cc1`, for which, where the note is “in ClCCl”, the absorption maximum is 352 nm.
Consider `COc1ccc(-c2c3ccc([nH]3)c3nc(c(-c4ccc([N+](=O)[O-])cc4)c4ccc([nH]4)c4ccc([nH]4)c(-c4ccc(OC)cc4)c4ccc2o4)C=C3)cc1`, for which the absorption maximum is reported as 446 nm (in C1CCOC1), 448 nm (in Cc1ccccc1) and 448 nm (in c1ccccc1).
Under “in ClCCl”, `O=C(O)C1=C(C(=O)O)C2=C[C@H]3c4ccccc4[C@]2(S1)c1ccccc13` displayed an absorption maximum of 410 nm.
Consider `O=C1OC(=O)c2ccc(N(c3ccccc3)c3ccc4ccc5cccc6ccc3c4c56)c3cccc1c23`, for which the absorption maximum runs as follows: (in C1CCOC1) 455 nm; (in CCCCCC) 447 nm; (in ClCCl) 465 nm; (in c1ccccc1) 457 nm.
Take `CCCCCCn1c(=O)c2c3[nH]c4ccccc4sc3c3c(=O)n(CCCCCC)c(=O)c3c2c1=O`: the absorption maximum (in ClCCl) is 500 nm.
Regarding `O=[N+]([O-])c1ccc(/C2=C3N=C(C(c4ccccc4)=C/3c3ccccc3)/C(c3ccc([N+](=O)[O-])cc3)=c3\[nH]/c(c(-c4ccccc4)c3-c3ccccc3)=C(/c3ccc([N+](=O)[O-])cc3)C3=N/C(=C(/c4ccc([N+](=O)[O-])cc4)c4[nH]c2c(-c2ccccc2)c4-c2ccccc2)C(c2ccccc2)=C3c2ccccc2)cc1`, the absorption maximum (in ClCCl) was found to be 711 nm.
`CC1(C)c2ccccc2N(c2ccc(-c3nc([C@]45CC6CC(C[C@@H](C6)C4)C5)nc([C@]45C[C@H]6C[C@@H](C[C@H](C6)C4)C5)n3)cc2)c2ccccc21` displayed an absorption maximum (in Cc1ccccc1) of 367.8 nm.
`O=S(=O)(c1ccccc1)c1ccc(-c2ccc3c(c2)c2cc(-c4ccc(S(=O)(=O)c5ccccc5)cc4)ccc2n3-c2ccccc2)cc1`: the absorption maximum came to 343 nm (in CCCCCC); 345 nm (in CN(C)C=O); 343 nm (in CO); 340 nm (in Cc1ccccc1); 343 nm (in ClCCl).
Turning to `CC[n+]1c(C=C2C(=O)C(C=C3N(C)c4ccccc4C3(C)C)=C2[O-])[se]c2ccccc21`, the absorption maximum stood at 643 nm (in CO), 657 nm (in ClC(Cl)Cl) and 658 nm (in ClCCl).
For `COc1ccccc1-c1nc(-c2ccccc2)c2ccccn12`, the absorption maximum by setting is: (in C1CCCCC1) 303 nm; (in CC#N) 374 nm; (in CO) 298 nm; (in ClCCl) 374 nm; (in O) 330 nm.
As to `c1cc2ccc1-c1ccc(cc1)-c1ccc([se]1)-c1ccc(cc1)-c1ccc(cc1)-c1ccc([se]1)-c1ccc(cc1)-c1ccc(cc1)-c1ccc-2[se]1`, the absorption maximum (in C1CCOC1) worked out at 365 nm.
In turn, `F[B-]1(F)Oc2ccc(Br)cc2-c2c3c(c4c([n+]21)CCc1ccccc1-4)CCc1ccccc1-3` yielded an absorption maximum (in ClCCl) of 347 nm.
For `CCCCCCN(CCCCCC)c1ccc(C#Cc2ccc(C(F)(F)F)cc2)cc1`, the absorption maximum is reported as 356 nm (in CO) and 362 nm (in ClCCl).
With `Cc1ccc(C2=CC(c3ccc(C)cc3)=[N+]3C2=Nc2c(-c4ccc(C)cc4)cc(-c4ccc(C)cc4)n2[B-]3(F)F)cc1`, the absorption maximum (in ClC(Cl)Cl) was 652 nm.
